ChEMBL document CHEMBL1137175, “Nonpeptide alpha V beta 3 antagonists. Part 9: Improved pharmacokinetic profile through the use of an aliphatic, des-amide backbone” (Bioorg Med Chem Lett, 2004)
pIC50: −log10 of the molar value.

Assays:
Integrin alpha-V/beta-3 [1] = molecular target: T1, Integrin alpha-V/beta-3 (Homo sapiens, UniProt P05106+P06756); assay: Inhibition of alpha v beta 3 receptor binding; format: protein-complex assay
Integrin alpha-V/beta-3 [2] = molecular target: T1, Integrin alpha-V/beta-3; assay: Inhibition of binding to alpha v beta 3 receptor; format: protein-complex assay
[3] = Oral bioavailability in dog; format: ADME, organism-based, Canis lupus familiaris; conditions: in vivo
[4] = Concentration required for plasma clearance is determined in dogs; format: ADME, organism-based, Canis lupus familiaris; conditions: dog
[5] = Half life of compound is determined in dogs; format: ADME, Canis lupus familiaris; conditions: dog, in vivo
[6] = Partition coefficient (logP); format: physicochemical; conditions: octanol/water

T1 sequence (P05106 27-788 limits assumed): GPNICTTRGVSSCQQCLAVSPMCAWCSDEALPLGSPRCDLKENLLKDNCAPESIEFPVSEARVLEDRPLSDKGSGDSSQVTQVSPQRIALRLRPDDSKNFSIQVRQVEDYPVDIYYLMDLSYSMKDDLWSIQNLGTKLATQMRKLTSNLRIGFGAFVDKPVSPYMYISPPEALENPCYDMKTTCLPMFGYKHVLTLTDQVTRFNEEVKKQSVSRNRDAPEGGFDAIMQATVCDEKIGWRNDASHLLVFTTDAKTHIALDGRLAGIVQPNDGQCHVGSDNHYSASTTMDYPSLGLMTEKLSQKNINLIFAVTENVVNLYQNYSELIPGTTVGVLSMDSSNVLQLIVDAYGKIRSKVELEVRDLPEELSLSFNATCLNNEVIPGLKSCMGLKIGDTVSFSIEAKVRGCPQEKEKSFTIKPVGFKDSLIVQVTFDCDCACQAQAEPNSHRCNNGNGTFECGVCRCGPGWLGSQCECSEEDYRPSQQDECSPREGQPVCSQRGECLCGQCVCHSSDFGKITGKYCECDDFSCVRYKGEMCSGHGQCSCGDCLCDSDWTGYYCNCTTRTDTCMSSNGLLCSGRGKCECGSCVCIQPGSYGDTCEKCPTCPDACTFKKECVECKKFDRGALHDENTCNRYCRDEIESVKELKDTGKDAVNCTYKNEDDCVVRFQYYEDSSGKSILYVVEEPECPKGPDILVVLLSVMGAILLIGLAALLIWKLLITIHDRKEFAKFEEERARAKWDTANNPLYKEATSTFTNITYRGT
T1 sequence (P06756 31-889 limits assumed): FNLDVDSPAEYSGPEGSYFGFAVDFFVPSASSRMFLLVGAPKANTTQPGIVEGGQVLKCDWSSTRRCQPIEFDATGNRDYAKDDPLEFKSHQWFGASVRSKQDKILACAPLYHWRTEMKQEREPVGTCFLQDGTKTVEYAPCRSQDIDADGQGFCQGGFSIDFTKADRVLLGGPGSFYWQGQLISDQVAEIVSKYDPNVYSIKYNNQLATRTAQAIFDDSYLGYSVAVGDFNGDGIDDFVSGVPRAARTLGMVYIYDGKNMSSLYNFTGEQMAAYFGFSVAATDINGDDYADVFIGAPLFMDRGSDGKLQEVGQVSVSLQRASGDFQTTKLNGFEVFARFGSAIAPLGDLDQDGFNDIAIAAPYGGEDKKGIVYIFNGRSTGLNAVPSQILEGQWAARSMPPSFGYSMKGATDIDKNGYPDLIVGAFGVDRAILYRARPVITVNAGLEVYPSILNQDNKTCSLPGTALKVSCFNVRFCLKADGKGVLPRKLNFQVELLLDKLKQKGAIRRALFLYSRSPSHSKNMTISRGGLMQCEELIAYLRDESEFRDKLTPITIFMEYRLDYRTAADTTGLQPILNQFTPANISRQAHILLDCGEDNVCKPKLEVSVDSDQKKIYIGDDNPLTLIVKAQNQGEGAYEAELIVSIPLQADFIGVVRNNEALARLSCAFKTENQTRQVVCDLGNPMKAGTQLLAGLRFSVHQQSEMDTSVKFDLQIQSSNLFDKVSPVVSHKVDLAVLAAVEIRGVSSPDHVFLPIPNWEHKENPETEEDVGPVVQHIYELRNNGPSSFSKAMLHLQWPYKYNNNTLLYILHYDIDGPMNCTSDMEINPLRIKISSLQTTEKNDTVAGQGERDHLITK
T1 sequence (P06756 891-1048 limits assumed): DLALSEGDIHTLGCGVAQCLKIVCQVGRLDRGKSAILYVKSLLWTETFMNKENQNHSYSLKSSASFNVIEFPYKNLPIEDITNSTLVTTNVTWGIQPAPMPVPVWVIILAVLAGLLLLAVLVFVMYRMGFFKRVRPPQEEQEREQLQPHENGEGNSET

Row | Compound | pIC50 (Integrin alpha-V/beta-3 [1]) | pIC50 (Integrin alpha-V/beta-3 [2]) | further results
1 | CCCCS(=O)(=O)N[C@@H](CNC(=O)CCCCc1ccc2c(n1)NCCC2)C(=O)O | 8.64 |  | 
2 | CC1(C)[C@@H]2CC[C@@]1(CS(=O)(=O)N[C@@H](CNC(=O)CCCCc1ccc3c(n1)NCCC3)C(=O)O)C(=O)C2 | 10.00 |  | 
3 | O=C(CCCCc1ccc2c(n1)NCCC2)NC[C@H](NC(=O)c1ccccc1)C(=O)O | 7.13 |  | 
4 | O=C(CCCCc1ccc2c(n1)NCCC2)NC[C@H](NC(=O)OCc1ccccc1)C(=O)O | 8.74 |  | 
5 | O=C(O)[C@H](CCCCCCCc1ccc2c(n1)NCCC2)NS(=O)(=O)CC1CCCCC1 |  | 7.74 | 
6 | CC1(C)[C@@H]2CC[C@@]1(CS(=O)(=O)N[C@@H](CCCCCCCc1ccc3c(n1)NCCC3)C(=O)O)C(=O)C2 |  | 9.10 | 
7 | O=C(NCc1ccccc1)N[C@@H](CCCCCCCc1ccc2c(n1)NCCC2)C(=O)O |  | 8.33 | 
8 | O=C(O)[C@H](CCCCCCCc1ccc2c(n1)NCCC2)NS(=O)(=O)C1CCCCC1 |  | 7.30 | 
9 | CCCCS(=O)(=O)N[C@@H](CCCCCCCc1ccc2c(n1)NCCC2)C(=O)O |  | 7.67 | 
10 | Cc1ccc(S(=O)(=O)N[C@@H](CNC(=O)CCCCc2ccc3c(n2)NCCC3)C(=O)O)cc1 | 9.40 |  | 
11 | O=C(N[C@@H](CCCCCCCc1ccc2c(n1)NCCC2)C(=O)O)OCc1ccccc1 |  | 8.21 | 

Second part, led by results:

Row | pIC50 (Integrin alpha-V/beta-3 [1]) | pIC50 (Integrin alpha-V/beta-3 [2]) | Compound | further results
12 | 9.52 |  | O=C(CCCCc1ccc2c(n1)NCCC2)NC[C@H](NS(=O)(=O)c1ccccc1)C(=O)O | 
13 |  | 7.95 | O=C(O)[C@H](CCCCCCCc1ccc2c(n1)NCCC2)NS(=O)(=O)c1ccccc1 | 
14 |  | 7.14 | O=C(N[C@@H](CCCCCCCc1ccc2c(n1)NCCC2)C(=O)O)c1ccccc1 | 
15 |  | 7.29 | O=C(Cc1ccccc1)N[C@@H](CCCCCCCc1ccc2c(n1)NCCC2)C(=O)O | bioavailability [3]: 17%; clearance [4]: 13 mL/min/kg; half-life [5]: 19.2 h; logP [6]: 1.13
16 |  | 7.46 | O=C(O)[C@H](CCCCCCCc1ccc2c(n1)NCCC2)NS(=O)(=O)Cc1ccccc1 | 
